From PubChem BioAssay (NCI) come the findings set out here.

Experiment in all cases: NCI anticancer screen, dose series, 48 h
Assay [1] concerns NCI-H522 lung.
For assay [2], the system named is MDA-MB-231 breast.
The subject of assay [3] is MALME-3M melanoma.
Assay [4] relates to SK-MEL-2 melanoma.
Assay [5] concerns 786-0 renal.
Assay [6] relates to U251 CNS.
In assay [7] the test system is SK-MEL-5 melanoma.
Assay [8] concerns DU-145 prostate.
Assay [9] relates to ACHN renal.
Assay [10] relates to OVCAR-8 ovarian.

“And” between values parts separate entries of the source, which are not always exact repeats. Equal entries are not always repeated.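 Tested at 5 concentrations; 48 h exposure; 96-well plates; endpoints linearly interpolated, else capped at highest concentration. The concentration for 50% growth inhibition is given as GI50. TGI: concentration producing complete growth inhibition.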 Where only a bound is given, the exact number is not on record here.

Regarding `O=c1c2ccccc2sc2cccc(NCCCN3CCN(CCCNc4cccc5sc6ccccc6c(=O)c45)CC3)c12`, the TGI in assay [1], in assay [2], in [3], in assay [4], in assay [5] and in assay [6] was > 100 µM throughout. The TGI in assay [7], in assay [8] and in [9] was > 100 µM each time.

For `Cc1nc2ccccc2nc1-c1ccc(N=[N+]([O-])c2ccc(-c3nc4ccccc4nc3C)cc2)cc1`, the TGI in assay [1] is > 100 µM; in assay [2] it was > 80.2 µM; in [10], > 100 µM; in [3], > 100 µM; in assay [4], > 100 µM; in [5], > 100 µM. Further, the TGI in assay [6] is > 63.2 µM; in [7] it was > 100 µM; in assay [8], > 100 µM; in assay [9], > 100 µM.

Take `CCN(CC)c1nc(-c2ccc(Cl)cc2Cl)nc2ccccc12`: the GI50 in assay [1] was 29.2 µM; in [2], 4.2 µM; in assay [10], 31.9 µM; in assay [3] it was 18.9 µM; in assay [4] it was > 41.8 µM; in assay [5] it was 22.2 µM. Besides, the GI50 is 18 µM in assay [6], 17.8 µM in assay [7], 13.6 µM in assay [8] and 15.8 µM in assay [9]. In addition, the TGI is > 74.9 µM in assay [1]; 23.2 µM in assay [2]; > 100 µM in assay [10]; 49.7 µM in assay [3]; > 67.7 µM in assay [4]; 61.9 µM in assay [5]. The TGI in [6] was 37.2 µM; in assay [7], 33.3 µM; in assay [8], > 58.9 µM; in [9], 50.4 µM.

In the case of `COc1ccc(-c2oc(=O)ccc2-c2cc(OC)c(OC)c(OC)c2)cc1F`, the GI50 in [1] was 3.04 µM; in assay [2], 16 µM; in assay [10], 24.1 µM; in [3], 3.24 µM; in assay [4], 6.98 µM; in assay [5], 36.4 µM. The GI50 in assay [6] was 14.5 µM; in assay [7] it was 7.46 µM; in assay [8] it was 32 µM; in [9], 25.2 µM. Besides, the TGI in assay [1] is 23.6 µM; in [2] it was > 100 µM; in [10], > 100 µM; in assay [3], > 100 µM; in assay [4], > 100 µM; in [5], > 100 µM. The TGI in assay [6] is > 100 µM; in assay [7] it was 58.7 µM; in [8] it was > 100 µM; in [9] it was > 100 µM.

With `COc1cc(C2c3cc4c(cc3C(O)C(CO)C2CO)OCO4)cc(OC)c1OC` (stereo not given), the GI50 is 0.38 µM in assay [1]; 3.69 µM in [2]; 2.76 µM in [10]; 6.59 µM in [5]; 0.587 µM in [6]; 0.636 µM in assay [7]. Moreover, the values for the GI50 in assay [8] and in assay [9] were 0.965 µM and 8.09 µM, respectively. Moreover, the TGI in assay [2] was > 100 µM; in assay [10], > 100 µM; in [4], > 100 µM; in [5], > 100 µM; in assay [6], > 100 µM; in assay [7], > 72 µM. Besides, the TGI in [8] was 15.4 µM; in assay [9], > 100 µM.

As for `COc1cc(CNCCCN2C(=O)c3ccc4c5c(ccc(c35)C2=O)C(=O)N(CCCNCc2cc(OC)c(OC)c(OC)c2)C4=O)cc(OC)c1OC`, the GI50 in [1] is 0.409 µM; in assay [2], 0.252 µM; in assay [10], 0.272 µM; in [3], 0.334 µM; in assay [4], 0.562 µM; in [5] it was 0.944 µM. Also, the GI50 in assay [6] was 0.257 µM; in [7], 0.39 µM; in [8], 0.436 µM; in [9], 0.841 µM. For the same compound, the TGI in [1] worked out at 1.14 µM; in assay [2], 2.27 µM; in assay [10], 0.959 µM; in assay [3], 1.02 µM; in [4] it was 1.52 µM; in assay [5], 2.39 µM. In addition, the TGI in assay [6] is 0.93 µM; in assay [7], 1.03 µM; in assay [8] it was 1.11 µM; in assay [9] it was 3.17 µM.

For `CCOC(=O)C(=Cc1cccc(Cl)c1)C(=O)OCC`, the GI50 in [1] is 1.53 µM; in [2] it was 2.35 µM; in assay [10] it was 3.37 µM; in assay [4], 2.1 µM; in assay [5], 1.93 µM; in assay [6] it was 4.47 µM. In addition, the GI50 in assay [7] was 1.83 µM; in assay [8], 2.21 µM; in assay [9] it was 1.89 µM. Also, the TGI turned out to be 3.21 µM in [1]; 5.04 µM in assay [2]; 12.8 µM in [10]; 4.24 µM in [4]; 4.26 µM in assay [5]; 15.9 µM in [6]. Further, the TGI was found to be 3.35 µM in assay [7], 5.4 µM in [8] and 4.23 µM in [9].

`CCCNC(=S)/N=C/c1c(O)c2ccccc2[nH]c1=O`: the TGI in assay [1], in assay [2], in [10], in assay [4], in assay [5] and in assay [6] was > 100 µM throughout. Further, the TGI in assay [7], in [8] and in assay [9] was > 100 µM each time.

`CC(=O)c1cc2c(o1)C(=O)c1ccccc1C2=O`: the GI50 in assay [1] was 0.19 µM and 0.194 µM; in assay [2], 0.765 µM and 1.66 µM; in [10] it was 0.411 µM and 0.378 µM; in [3], 0.18 µM and 0.143 µM; in assay [4], 0.42 µM and 0.548 µM; in assay [5], 0.381 µM and 1.21 µM. Besides, the GI50 in assay [6] was 0.197 µM and 0.256 µM; in [7], 0.169 µM and 0.173 µM; in assay [8], 0.174 µM and 0.186 µM; in [9] it was 0.467 µM and 0.415 µM. In addition, the TGI in assay [1] was 0.413 µM and 0.495 µM; in [2], 4.29 µM and 6.88 µM; in assay [10] it was 1.32 µM and 1.53 µM; in assay [3], 0.332 µM and 0.281 µM; in assay [4], 1.29 µM and 2 µM; in [5], 1.02 µM and 2.71 µM. Besides, the TGI is 0.378 µM and 0.682 µM in assay [6]; 0.31 µM and 0.316 µM in assay [7]; 0.32 µM and 0.331 µM in assay [8]; 1.6 µM and 1.31 µM in assay [9].

`COc1ccccc1N1CCN(CCCn2c(=O)c3c(OC)nc(C)cc3c(=O)n2-c2ccccc2)CC1`: the GI50 in assay [1], in [2], in assay [3], in assay [4], in assay [5] and in assay [6] was > 100 µM each time. The GI50 in assay [7], in assay [8] and in assay [9] was > 100 µM in each case. The TGI in assay [1], in [2], in [3], in assay [4], in assay [5] and in assay [6] was > 100 µM throughout. Besides, the TGI in [7], in assay [8] and in [9] was > 100 µM throughout.

As for `O=C1NC(=S)NNC12c1ccccc1-c1ccccc12`, the TGI in [2], in assay [10], in assay [3], in [5], in [6] and in assay [7] was > 10 µM throughout. Also, the TGI in assay [8] is > 10 µM.

For `Nc1c(C(=O)Nc2cccc(Br)c2)sc2nc3c(cc12)C(=O)CCC3`, the GI50 in [1] is 0.248 µM; in [2], 1.68 µM; in [10] it was 33.7 µM; in assay [3] it was 0.579 µM; in assay [5], 0.86 µM; in assay [6], 0.517 µM. Further, the GI50 was 0.4 µM in assay [7], 0.426 µM in assay [8] and 15.7 µM in assay [9]. For the same compound, the TGI was 61.1 µM in [2]; > 100 µM in assay [10]; > 100 µM in assay [3]; > 100 µM in assay [5]; > 100 µM in assay [6]; > 100 µM in [7]. Besides, the TGI in [8] is > 61.6 µM; in assay [9], > 100 µM.

In the case of `COC12C=C/C(=C(/C(=O)OCc3ccncc3)C(=O)CCCCCCCCC3(OC)C=C/C(=C(/C(=O)OCc4ccncc4)C(=O)CCCCCCCC1)O3)O2`, the GI50 in [1] was 0.564 µM; in [2], 0.686 µM; in assay [10] it was 0.219 µM; in [4], 1.08 µM; in [5], 0.354 µM; in assay [6], 0.5 µM. Further, the GI50 was 0.247 µM in assay [7], 0.709 µM in assay [8] and 0.217 µM in [9]. In addition, the TGI in assay [1] was found to be 1.76 µM; in assay [2] it was 6.51 µM; in assay [10], 50 µM; in assay [4], 3.05 µM; in assay [5] it was 1.19 µM; in assay [6], 1.46 µM. For the same compound, the TGI came out at 0.867 µM in [7], 2.29 µM in [8] and 1.14 µM in assay [9].

On to `C=CCc1cccc(/C=N/NC(=O)CN2CCN(Cc3ccccc3)CC2)c1O`, for which the GI50 in assay [2] is 2.49 µM; in assay [10], 2.08 µM; in [3], 5.79 µM; in assay [4], 2.31 µM; in assay [5], 2.04 µM; in [6], 2.13 µM. Also, the GI50 is 1.26 µM in assay [7], 1.79 µM in assay [8] and 1.54 µM in assay [9]. In addition, the TGI in assay [2] was determined as 15.5 µM; in assay [10], 17.6 µM; in assay [3], 19.8 µM; in assay [4], 11.5 µM; in assay [5], 12.1 µM; in assay [6], 14.9 µM. The figures for the TGI in assay [7], in assay [8] and in [9] were 3.53 µM, 13.4 µM and 12 µM, respectively.

On to `O=c1cc(-c2ccccc2)[nH]c2c(S)cccc12`, for which the TGI in assay [1], in assay [2], in assay [10], in [3], in assay [5] and in [6] was > 100 µM in each case. Also, the TGI in [7], in assay [8] and in assay [9] was > 100 µM throughout.

For `C1CSCCSCCS1`, the TGI in [1], in [2], in [10], in assay [5], in assay [6] and in [7] was > 100 µM throughout. Besides, the TGI in [8] was > 100 µM.

As for `COc1cccc2c1C(=O)c1c(O)c3c(c(O)c1C2=O)CC(O)(/C(C)=N/NC(=O)CCC(=O)N/N=C(\C)C1(O)Cc2c(O)c4c(c(O)c2C(OC2CC(N)C(O)C(C)O2)C1)C(=O)c1c(OC)cccc1C4=O)CC3OC1CC(N)C(O)C(C)O1` (stereo not given), the GI50 was 0.0503 µM in assay [1]; 1.17 µM in assay [2]; 0.306 µM in assay [10]; 0.285 µM in assay [3]; 0.111 µM in [4]; 0.182 µM in assay [5]. The GI50 is 0.302 µM in [8] and 0.277 µM in assay [9]. Further, the TGI in [1] is 0.327 µM; in assay [2], > 50 µM; in assay [10], > 50 µM; in [3], 1.12 µM; in [4] it was 0.343 µM; in assay [5], 1.06 µM. Moreover, the TGI came out at 2.97 µM in assay [8] and 2.9 µM in [9].

Take `O=c1cc2oc3cc(O)c(O)cc3c(-c3ccccc3O)c-2cc1O`: the GI50 in assay [2] is 10.2 µM; in assay [10], 16 µM; in assay [3] it was 53 µM; in [4], 36.8 µM; in assay [5], 6.32 µM; in assay [6] it was 4.6 µM. Also, the GI50 in assay [7] is 19.4 µM; in assay [8], 22.8 µM; in assay [9], 4.13 µM. For the same compound, the TGI in assay [2] is > 100 µM; in assay [10], > 100 µM; in assay [3], > 100 µM; in assay [4], > 100 µM; in assay [5] it was 37.2 µM; in assay [6], > 100 µM. For the same compound, the TGI in [7], in [8] and in [9] was > 100 µM throughout.
